56 compounds from patent publication US20220267260A1, “COMPOUNDS CONTAINING A SULFONIC GROUP AS KAT INHIBITORS” (Epizyme, Inc., priority 2016, published 2022) can be followed below.

The target in test [1] is T1, KAT6A (Homo sapiens, UniProt Q92794).
T1 construct: His-TEV tag (N, cleaved yes); made in house
The test is described as follows: KAT6A enzyme inhibition assay (SAMDI mass spectrometry). The test is classed as biochemical. The note with it: His-TEV-KAT6A 501-784 enzyme construct.

Test [2] concerns the target T2, KAT5 (Homo sapiens, UniProt Q92993).
T2 construct: His-TEV tag (N, cleaved yes); made in house
The test is described as follows: KAT5 enzyme inhibition assay (SAMDI mass spectrometry). The format is biochemical. The conditions noted are these: His-TEV-FL KAT5-Flag enzyme construct.

SMILES strings stand for the structures.

T2 sequence (Q92993 with tags, fused parts or gaps): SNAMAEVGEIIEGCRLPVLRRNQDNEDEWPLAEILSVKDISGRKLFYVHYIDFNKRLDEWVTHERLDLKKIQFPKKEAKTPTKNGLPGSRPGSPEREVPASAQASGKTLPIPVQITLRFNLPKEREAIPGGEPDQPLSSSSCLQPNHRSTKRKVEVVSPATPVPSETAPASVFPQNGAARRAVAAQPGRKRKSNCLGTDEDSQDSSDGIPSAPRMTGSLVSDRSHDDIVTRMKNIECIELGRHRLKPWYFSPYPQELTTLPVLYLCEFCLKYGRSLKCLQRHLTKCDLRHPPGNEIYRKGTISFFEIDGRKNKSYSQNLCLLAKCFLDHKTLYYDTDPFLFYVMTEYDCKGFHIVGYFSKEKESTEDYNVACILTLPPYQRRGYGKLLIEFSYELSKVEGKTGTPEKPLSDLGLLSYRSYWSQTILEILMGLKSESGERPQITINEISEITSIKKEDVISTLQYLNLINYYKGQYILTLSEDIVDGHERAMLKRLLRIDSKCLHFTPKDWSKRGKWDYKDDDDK
T1 sequence (Q92794 with tags, fused parts or gaps): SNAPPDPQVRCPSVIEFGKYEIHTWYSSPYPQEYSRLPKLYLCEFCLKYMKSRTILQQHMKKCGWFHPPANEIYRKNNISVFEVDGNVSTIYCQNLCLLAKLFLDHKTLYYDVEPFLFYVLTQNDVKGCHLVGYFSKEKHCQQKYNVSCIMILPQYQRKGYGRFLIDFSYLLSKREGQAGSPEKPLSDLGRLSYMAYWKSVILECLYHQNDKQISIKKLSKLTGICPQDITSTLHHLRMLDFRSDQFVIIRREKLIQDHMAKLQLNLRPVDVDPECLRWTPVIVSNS

The term IC50 denotes the midpoint of a concentration-inhibition curve. Low values mean greater potency, high ones weaker potency. Regarding `Cc1nn(CC(=O)NCCN(C)C)c(C(=O)NNS(=O)(=O)C2CCCCC2)c1F` [Compound I-502], the IC50 in test [1] and in test [2] was above 100 µM throughout.

Take `O=C(NNCc1ccccc1)c1ccccc1F` [Compound I-169]: the concentration for half-maximal inhibition (IC50) in test [1] and in test [2] was above 100 µM each time.

Turning to `Cc1cccc(-c2cc(C)c(F)c(C(=O)NNS(=O)(=O)C3CCCCC3)c2)c1` [Compound I-325], the IC50 in test [1] was 10 to 50 µM; in test [2], at most 10 µM.

With `Cc1cc(-c2ccccc2)cc(C(=O)NNS(=O)(=O)C2CN(C(=O)OC(C)(C)C)C2)c1F` [Compound I-119, tert-Butyl 3-((2-(4-fluoro-5-methyl-[1,1′-biphenyl]-3-carbonyl)hydrazinyl)sulfonyl)azetidine-1-carboxylate], the IC50 in test [1] and in test [2] was 10 to 50 µM in each case.

For `CC(C)C(Cc1ccccc1)CS(=O)(=O)NNC(=O)c1ccccc1` (stereo not shown) [Compound I-265], the IC50 in test [1] and in test [2] was above 100 µM throughout.

On to `Cc1cc(-c2ccccc2Cl)cc(C(=O)NNS(=O)(=O)C2CCCCC2)c1F` [Compound I-318], for which the IC50 in test [1] and in test [2] was 50 to 100 µM in each case.

On to `Cc1cc(-c2ccccc2)cc(C(=O)NNS(=O)(=O)C2CCN(CCc3ccccc3)C2)c1F` (stereo not shown) [Compound I-36], for which the IC50 in test [1] and in test [2] was 10 to 50 µM throughout.

For the compound `O=C(NNS(=O)(=O)C1CCCCC1)c1cc(-c2cc(F)cc(F)c2)cc(Cl)c1F` [Compound I-392], the values for the IC50 in test [1] and in test [2] were 10 to 50 µM and at most 10 µM, respectively.

For `Cc1cc(-c2ccccc2)cc(C(=O)NNCC(F)(F)F)c1F` [Compound I-476], the IC50 in test [1] and in test [2] was above 100 µM in each case.

Take `COc1cc(Cl)c(F)c(C(=O)NNS(=O)(=O)C2CCOCC2)c1` [Compound I-430]: the IC50 in test [1] is above 100 µM; in test [2], 50 to 100 µM.

For the compound `Cc1cc(-c2ccccc2)cc(C(=O)Nc2nnc3n2CCCC3)c1F` [Compound I-150], the IC50 in test [1] and in test [2] was above 100 µM each time.

Turning to `COc1cc(Cl)c(F)c(C(=O)NNS(=O)(=O)C2CCCCC2)c1` [Compound I-393], the results for the IC50 in test [1] and in test [2] were above 100 µM and at most 10 µM, respectively.

Take `Cc1cc(-c2ccccc2)cc(C(=O)N2CC(S(=O)(=O)c3ccccc3)C2)c1F` [Compound I-199]: the IC50 in test [1] and in test [2] was above 100 µM throughout.

`O=C(NNS(=O)(=O)c1cccc(Cl)c1)c1c(F)ccc(-c2cn[nH]c2)c1F` [Compound I-305]: the results for the IC50 in test [1] and in test [2] were 10 to 50 µM and above 100 µM, respectively.

For `Cc1cc(F)cc(-c2cc(Cl)c(F)c(C(=O)NNS(=O)(=O)C3CCCCC3)c2)c1` [Compound I-484], the IC50 in test [1] and in test [2] was 10 to 50 µM in each case.

Turning to `Cc1c(-c2ccccc2)ccc(F)c1C(=O)NCC(=O)NC(Cc1ccccc1)C(C)C` (stereo not shown) [Compound I-387], the IC50 in test [1] and in test [2] was above 100 µM throughout.

Consider `Cc1cc(-c2ccccc2)cc(C(=O)Nc2cn[nH]c2)c1F` [Compound I-213], for which the IC50 in test [1] and in test [2] was above 100 µM each time.

Regarding `COCCNC(=O)c1cccc(-c2cc(C)c(F)c(C(=O)N(N)S(=O)(=O)c3ccccc3)c2)c1` [Compound I-477], the IC50 in test [1] and in test [2] was above 100 µM throughout.

On to `COCc1cc(Cl)c(F)c(C(=O)NNS(=O)(=O)C2CCCCC2)c1` [Compound I-451], for which the IC50 in test [1] was 10 to 50 µM; in test [2] it was at most 10 µM.

Turning to `COc1ccccc1CS(=O)(=O)NNC(=O)c1cc(-c2ccccc2)cc(C)c1F` [Compound I-79], the IC50 in test [1] and in test [2] was at most 10 µM each time.

Take `Cc1cc(-c2ccccc2)cc(C(=O)NNS(C)(=O)=O)c1F` [Compound I-1]: the figures for the IC50 in test [1] and in test [2] were 10 to 50 µM and 50 to 100 µM, respectively.

Regarding `O=C(NNS(=O)(=O)C1CCOCC1)c1cc(Cl)cc(Cl)c1F` [Compound I-414], the IC50 in test [1] and in test [2] was above 100 µM in each case.

Take `O=C(NNC(c1ccccc1)C(F)(F)F)c1ccccc1F` (stereo not shown) [Compound I-134]: the IC50 in test [1] and in test [2] was above 100 µM in each case.

In the case of `O=C(NNS(=O)(=O)CC1CCCCC1)c1cc(CO)cc(Cl)c1F` [Compound I-457], the IC50 in test [1] and in test [2] was at most 10 µM in each case.

For the compound `COCCNC(=O)c1cccc(-c2cc(C)c(F)c(C(=O)NNS(=O)(=O)CC3CCCCC3)c2)c1` [Compound I-447], the IC50 was 10 to 50 µM in test [1] and at most 10 µM in test [2].

Consider `Cc1cc(-c2ccc(C(C)C)cc2)cc(C(=O)NNS(=O)(=O)c2ccccc2)c1F` [Compound I-384], for which the IC50 was at most 10 µM in test [1] and above 100 µM in test [2].

Take `Cc1cc(-c2ccccc2)cc(C(=O)NNS(=O)(=O)C2CN(C(=O)OCc3ccccc3)C2)c1F` [Compound I-121, Benzyl 3-((2-(4-fluoro-5-methyl-[1,1′-biphenyl]-3-carbonyl)hydrazinyl)sulfonyl)azetidine-1-carboxylate]: the IC50 in test [1] and in test [2] was 10 to 50 µM each time.

Turning to `Cc1c(-c2ccccc2)ccc(F)c1C(=O)NNC(=O)c1ccccc1` [Compound I-171], the IC50 in test [1] and in test [2] was above 100 µM each time.

In the case of `Cc1cc(-c2cccnc2)cc(C(=O)NNS(=O)(=O)c2ccccc2)c1F` [Compound I-195], the concentration for half-maximal inhibition (IC50) in test [1] was at most 10 µM; in test [2], 10 to 50 µM.

With `Cc1c(-c2ccccc2)ccc(F)c1C(=O)NNS(=O)(=O)C1CCCC1` [Compound I-249], the IC50 in test [1] and in test [2] was above 100 µM throughout.

As to `Cc1cc(-c2cccc(F)c2)cc(C(=O)NNS(=O)(=O)CC2CCNCC2)c1F` [Compound I-357], the IC50 was above 100 µM in test [1] and 50 to 100 µM in test [2].

Regarding `Cc1cc(-c2ccccc2)cc(C(=O)NNS(=O)(=O)C2CCCCC2)c1F` [Compound I-18], the IC50 in test [1] and in test [2] was at most 10 µM each time.

For `Cc1cc(-c2ccccc2F)cc(C(=O)NNS(=O)(=O)c2ccccc2)c1F` [Compound I-271], the IC50 in test [1] and in test [2] was at most 10 µM each time.

As for `Cc1cc(-c2cccc(F)c2)cc(C(=O)NNS(=O)(=O)CC2CCCN(C(=O)C(C)(C)C)C2)c1F` (stereo not shown) [Compound I-294], the IC50 in test [1] and in test [2] was at most 10 µM each time.

As for `Cc1cc(-c2ccccc2)cc(C(=O)NNS(=O)(=O)C2CCCN(C(C)C)C2)c1F` (stereo not shown) [Compound I-100], the IC50 is 50 to 100 µM in test [1] and above 100 µM in test [2].

Turning to `O=C(NNS(=O)(=O)c1ccccc1)c1ncccn1` [Compound I-189], the half-maximal inhibitory concentration (IC50) in test [1] and in test [2] was above 100 µM in each case.

Regarding `O=C(NNS(=O)(=O)c1ccccc1)c1cnn(Cc2ccccc2)c1` [Compound I-230], the IC50 in test [1] and in test [2] was above 100 µM each time.

For the compound `O=C(NC1CCC1)c1cc(Cl)c(F)c(C(=O)NNS(=O)(=O)C2CCCCC2)c1` [Compound I-473], the IC50 in test [1] and in test [2] was above 100 µM each time.

For `COc1cccc(CS(=O)(=O)NNC(=O)c2cc(-c3ccccc3)cc(C)c2F)c1` [Compound I-80], the IC50 in test [1] and in test [2] was at most 10 µM throughout.

Regarding `COCc1cc(Cl)c(F)c(C(=O)NNS(=O)(=O)C2CCOCC2)c1` [Compound I-453], the IC50 in test [1] and in test [2] was above 100 µM in each case.

Turning to `O=C(NNS(=O)(=O)c1ccc(Cl)cc1)c1ccccc1F` [Compound I-143], the IC50 in test [1] is 10 to 50 µM; in test [2] it was above 100 µM.

Consider `Cc1cc(-c2ccccc2)cc(C(=O)NNS(=O)(=O)CC2CCCN(C(=O)CCN(C)C)C2)c1F` (stereo not shown) [Compound I-409], for which the IC50 in test [1] and in test [2] was 10 to 50 µM in each case.

Turning to `Cc1cc(-c2ccccc2)cc(C(=O)NNS(=O)(=O)C2CCCN(C(=O)C(C)C)C2)c1F` (stereo not shown) [Compound I-111], the IC50 in test [1] is at most 10 µM; in test [2], 10 to 50 µM.

For `CNC(=O)CCNC(=O)c1cc(Cl)c(F)c(C(=O)NNS(=O)(=O)C2CCOCC2)c1` [Compound I-493], the IC50 in test [1] and in test [2] was above 100 µM each time.

As for `Cc1cc(-c2ccccc2)cc(C(=O)NNS(=O)(=O)C2CCCNC2)c1F` (stereo not shown) [Compound I-97], the figures for the IC50 in test [1] and in test [2] were 50 to 100 µM and above 100 µM, respectively.

As to `Cc1cc(-c2ccccc2)cc(C(=O)NNS(=O)(=O)C(C)C2CCCNC2)c1F` (stereo not shown) [Compound I-314], the IC50 in test [1] and in test [2] was above 100 µM throughout.

Regarding `CNC(=O)Cn1cc(F)c(C(=O)NNS(=O)(=O)C2CCCCC2)n1` [Compound I-496], the IC50 in test [1] and in test [2] was above 100 µM throughout.

With `Cc1cc(-c2ccccc2)cc(C(=O)NNS(=O)(=O)c2cccc(O)c2)c1F` [Compound I-235], the IC50 in test [1] and in test [2] was at most 10 µM throughout.

`Cc1cc(-c2ccccc2)cc(C(=O)NS(=O)(=O)c2ccccc2)c1F` [Compound I-168]: the IC50 in test [1] and in test [2] was 50 to 100 µM in each case.

Regarding `Cc1cc(-c2ccccc2)cc(C(=O)NNS(=O)(=O)C(C)C2CCCCC2)c1F` (stereo not shown) [Compound I-385], the IC50 in test [1] and in test [2] was at most 10 µM in each case.

Consider `O=C(NNS(=O)(=O)C1CCCCC1)c1cc(-c2cc(F)cc(Cl)c2)cc(Cl)c1F` [Compound I-490], for which the IC50 lay in the range of 10 to 50 µM in test [1] and 50 to 100 µM in test [2].

With `O=C(NNS(=O)(=O)c1ccc2ccccc2c1)c1c(F)ccc(-c2ccccc2)c1F` [Compound I-164], the 50% inhibitory concentration (IC50) in test [1] and in test [2] was at most 10 µM in each case.

In the case of `Cc1cccc(S(=O)(=O)NNC(=O)c2cc(-c3ccccc3)cc(C)c2F)c1` [Compound I-188], the IC50 in test [1] and in test [2] was at most 10 µM in each case.

For `COc1cccc(S(=O)(=O)NNC(=O)c2ccccc2F)c1` [Compound I-177], the IC50 in test [1] was 10 to 50 µM; in test [2], above 100 µM.

`O=C(NNS(=O)(=O)c1cccc(Cl)c1)c1c(F)ccc(-c2ccccc2)c1F` [Compound I-161]: the IC50 in test [1] is at most 10 µM; in test [2], 10 to 50 µM.

For the compound `Cn1nc(NNS(=O)(=O)c2ccccc2)c2cc(-c3ccccc3)ccc21` [Compound I-47], the IC50 in test [1] and in test [2] was above 100 µM each time.
